US9113629B2, “4-amino-6-(4-substituted-phenyl)-picolinates and 6-amino-2-(4-substituted-phenyl)-pyrimidine-4-carboxylates and their use as herbicides” (DOW AGROSCIENCES LLC, priority 2013, dated 2015)
Where two headings read alike, the source gives them in different places.

Legend:
[1] = tested on: Key Grass and Sedge Weeds as well as Grass Crops; assay: Post-emergent Test II herbicidal activity (Table 6); format: in vivo; conditions: post-emergence, 336 h; for pest or weed control at 70 g/ha: application rate 70 g ai/ha; for pest or weed control at 140 g/ha: application rate 140 g ai/ha
Outline: (§1)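 Scoring: visual, 0–100% injury at 14 d versus untreated. Treatment: overhead track spray, 187 L/ha, onto plants at the first–second true leaf stage. Growth: greenhouse, ~15 h light, 23–29 °C day, 22–28 °C night.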

[2] = tested on: Key Broadleaf Weed and Crop Species; assay: Post-emergent Test II herbicidal activity (Table 5); format: in vivo; conditions: post-emergence, 336 h, post-emergent, 14 days after application; for pest or weed control at 70 g/ha: 70 g ai/ha; for pest or weed control at 140 g/ha: 140 g ai/ha
Outline: as §1

[3] = Triticum aestivum, TRZSS (wheat), read-out: Visual Growth Reduction (%) 14 Days After Application, TRZSS
[4] = CYPES: yellow nutsedge (Cyperus esculentus), read-out: Visual Growth Reduction (%) 14 Days After Application, CYPES
[5] = DIGSA: crabgrass (Digitaria sanguinalis), read-out: Visual Growth Reduction (%) 14 Days After Application, DIGSA
[6] = ECHCG: barnyardgrass (Echinochloa crus-galli), read-out: Visual Growth Reduction (%) 14 Days After Application, ECHCG
[7] = ORYSA: rice (Oryza sativa), read-out: Visual Growth Reduction (%) 14 Days After Application, ORYSA
[8] = SETFA: giant foxtail (Setaria faberi), read-out: Visual Growth Reduction (%) 14 Days After Application, SETFA
[9] = SORVU: grain sorghum (Sorghum vulgare), read-out: Visual Growth Reduction (%) 14 Days After Application, SORVU
[10] = ZEAMX: maize, corn (Zea mays), read-out: Visual Growth Reduction (%) 14 Days After Application, ZEAMX
[11] = ABUTH: velvetleaf (Abutilon theophrasti), read-out: Visual Growth Reduction (%) 14 Days After Application ABUTH
[12] = AMARE: redroot pigweed (Amaranthus retroflexus), read-out: Visual Growth Reduction (%) 14 Days After Application AMARE
[13] = BRSNN: oilseed-rape, canola (Brassica napus), read-out: Visual Growth Reduction (%) 14 Days After Application BRSNN
[14] = CHEAL: lambsquarters (Chenopodium album), read-out: Visual Growth Reduction (%) 14 Days After Application CHEAL
[15] = EPHHL: wild poinsettia (Euphorbia heterophylla), read-out: Visual Growth Reduction (%) 14 Days After Application EPHHL
[16] = HELAN: sunflower (Helianthus annuus), read-out: Visual Growth Reduction (%) 14 Days After Application HELAN
[17] = VIOTR: wild pansy (Viola tricolor), read-out: Visual Growth Reduction (%) 14 Days After Application VIOTR

Row | SMILES | pest or weed control at 70 g/ha [1, 3] | pest or weed control at 140 g/ha [1, 3] | pest or weed control at 70 g/ha [1, 4] | pest or weed control at 140 g/ha [1, 4] | pest or weed control at 140 g/ha [1, 5] | pest or weed control at 70 g/ha [1, 6] | pest or weed control at 140 g/ha [1, 6] | pest or weed control at 70 g/ha [1, 7] | pest or weed control at 140 g/ha [1, 7] | pest or weed control at 70 g/ha [1, 8] | pest or weed control at 140 g/ha [1, 8] | pest or weed control at 70 g/ha [1, 9] | pest or weed control at 140 g/ha [1, 9] | pest or weed control at 70 g/ha [1, 10] | pest or weed control at 140 g/ha [1, 10] | pest or weed control at 70 g/ha [2, 11] | pest or weed control at 140 g/ha [2, 11] | pest or weed control at 70 g/ha [2, 12] | pest or weed control at 140 g/ha [2, 12] | pest or weed control at 70 g/ha [2, 13] | also measured
1 | COC(=O)c1nc(-c2cc(F)c(Br)cc2F)nc(N)c1OC [Compound 2] | 45 to 59% | 45 to 59% | 60 to 74% | 60 to 74% | 60 to 74% | 60 to 74% | 60 to 74% | 0 to 29% | 0 to 29% | 45 to 59% | 60 to 74% | 30 to 44% | 60 to 74% | 75 to 84% | 75 to 84% | 95 to 100% | 95 to 100% | 85 to 94% | 85 to 94% | 95 to 100% | pest or weed control at 140 g/ha [2, 13]: 95 to 100%; pest or weed control at 70 g/ha [2, 14]: 95 to 100%; pest or weed control at 140 g/ha [2, 14]: 95 to 100%; pest or weed control at 70 g/ha [2, 15]: 95 to 100%; pest or weed control at 140 g/ha [2, 15]: 95 to 100%; pest or weed control at 70 g/ha [2, 16]: 95 to 100%; pest or weed control at 140 g/ha [2, 16]: 95 to 100%; pest or weed control at 70 g/ha [2, 17]: 30 to 44%; pest or weed control at 140 g/ha [2, 17]: 95 to 100%
2 | Nc1cc(-c2cc(F)c(Br)cc2F)nc(C(=O)O)c1Cl [Compound 3] | 60 to 74% | 60 to 74% | 95 to 100% | 95 to 100% | 85 to 94% | 85 to 94% | 85 to 94% | 30 to 44% | 45 to 59% | 95 to 100% | 95 to 100% | 85 to 94% | 85 to 94% | 85 to 94% | 85 to 94% | 95 to 100% | 95 to 100% | 95 to 100% | 95 to 100% | 85 to 94% | pest or weed control at 70 g/ha [1, 5]: 75 to 84%; pest or weed control at 140 g/ha [2, 13]: 95 to 100%; pest or weed control at 70 g/ha [2, 14]: 95 to 100%; pest or weed control at 140 g/ha [2, 14]: 95 to 100%; pest or weed control at 70 g/ha [2, 15]: 95 to 100%; pest or weed control at 140 g/ha [2, 15]: 95 to 100%; pest or weed control at 70 g/ha [2, 16]: 85 to 94%; pest or weed control at 140 g/ha [2, 16]: 85 to 94%; pest or weed control at 70 g/ha [2, 17]: 95 to 100%; pest or weed control at 140 g/ha [2, 17]: 95 to 100%
